# Legend:
# Type in all cases: in vivo
# [1] = tested on: barnyardgrass (Echinochloa crus-galli); test: Test A preemergence soil spray, visual injury rating 0-100; conditions: 10 days
# Method in brief: (§1)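 Compounds formulated in a non-phytotoxic solvent with surfactant are sprayed onto soil of freshly planted loam-sand pots ahead of emergence, or onto emerged plants 2-10 cm tall. After a 10-day greenhouse period, each species is scored visually for injury against untreated controls.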
# [2] = tested on: blackgrass (Alopecurus myosuroides); test: as above; conditions: 10 days
# Method in brief: as §1
# corn (Zea mays) [3] = test: as above; conditions: 10 days
# Method in brief: as §1
# [4] = tested on: green foxtail (Setaria viridis); test: as above; conditions: 10 days
# Method in brief: as §1
# kochia (Bassia scoparia) [5] = test: as above; conditions: 10 days
# Method in brief: as §1
# [6] = tested on: oat, wild (wild oat, Avena fatua); test: as above; conditions: 10 days
# Method in brief: as §1
# [7] = tested on: palmer (palmer amaranth, palmer pigweed, Amaranthus palmeri); test: as above; conditions: 10 days
# Method in brief: as §1
# [8] = tested on: ragweed (common ragweed, Ambrosia artemisiifolia); test: as above; conditions: 10 days
# Method in brief: as §1
# [9] = tested on: ryegrass, Italian (italian ryegrass, Lolium multiflorum); test: as above; conditions: 10 days
# Method in brief: as §1
# soybean (Glycine max) [10] = test: as above; conditions: 10 days
# Method in brief: as §1
# [11] = tested on: wheat (Triticum aestivum); test: as above; conditions: 10 days
# Method in brief: as §1
# [12] = tested on: barnyardgrass (Echinochloa crus-galli); test: Test A postemergence application, visual injury rating 0-100
# Method in brief: as §1
# [13] = tested on: blackgrass (Alopecurus myosuroides); test: as above
# Method in brief: as §1
# corn (Zea mays) [14] = test: as above
# Method in brief: as §1
# [15] = tested on: galium (catchweed bedstraw, Galium aparine); test: as above
# Method in brief: as §1
# [16] = tested on: green foxtail (Setaria viridis); test: as above
# Method in brief: as §1
# [17] = tested on: horseweed (Erigeron canadensis); test: as above
# Method in brief: as §1
# kochia (Bassia scoparia) [18] = test: as above
# Method in brief: as §1
# [19] = tested on: oat, wild (wild oat, Avena fatua); test: as above
# Method in brief: as §1
# [20] = tested on: palmer (palmer amaranth, palmer pigweed, Amaranthus palmeri); test: as above
# Method in brief: as §1
# [21] = tested on: ragweed (common ragweed, Ambrosia artemisiifolia); test: as above
# Method in brief: as §1
# [22] = tested on: ryegrass, Italian (italian ryegrass, Lolium multiflorum); test: as above
# Method in brief: as §1
# soybean (Glycine max) [23] = test: as above
# Method in brief: as §1
# [24] = tested on: wheat (Triticum aestivum); test: as above
# Method in brief: as §1
# [25] = tested on: barnyardgrass (Echinochloa crusgalli); test: Test B flooded paddy test, visual plant response rating 0-100; conditions: 250 g ai/ha, Flood, applied to paddy water, evaluated after 13 days
# Method in brief: (§2)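 Plants were grown to the 2-leaf stage, then pots were flooded to 3 cm above the soil and test compounds were applied directly into the paddy water. Water depth was held there throughout; after 13 days in a greenhouse, injury was scored visually against untreated controls.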
# [26] = tested on: ducksalad (Heteranthera limosa); test: as above; conditions: 250 g ai/ha, Flood, applied to paddy water, evaluated after 13 days
# Method in brief: as §2
# rice (Oryza sativa) = test: as above; conditions: 250 g ai/ha, Flood, applied to paddy water, evaluated after 13 days
# Method in brief: as §2
# [27] = tested on: sedge, umbrella (small-flower umbrella sedge, Cyperus difformis); test: as above; conditions: 250 g ai/ha, Flood, applied to paddy water, evaluated after 13 days
# Method in brief: as §2
# [28] = 62 g ai/ha, 0 = no effect, 100 = complete control
# [29] = 62 g ai/ha, postemergence, 10 days, 0 = no effect, 100 = complete control
# [30] = Postemergence, 16 g ai/ha, greenhouse 10 days, 0 no effect, 100 complete control
smiles,measurement,setting,value
"COC(=O)C1CC(NC(=O)C2(C)CN(c3cc(F)cc(F)c3)C(=O)O2)C1 (stereo not shown) [Compound 118, methyl 3-[[3-(3,5-difluorophenyl)-5-methyl-2-oxo-oxazolidine-5-carbonyl]amino]cyclobutanecarboxylate]",Barnyardgrass plant response rating,"[1]; 16 g ai/ha, 0 to 100 scale",10
same,Barnyardgrass plant response rating (0-100),[1]; [28],80
same,Blackgrass plant response rating,"[2]; 16 g ai/ha, 0 to 100 scale",30
same,Blackgrass plant response rating (0-100),[2]; [28],90
same,Corn plant response rating,"corn (Zea mays) [3]; 16 g ai/ha, 0 to 100 scale",30
same,Corn plant response rating (0-100),corn (Zea mays) [3]; [28],90
same,"Foxtail, Green plant response rating","[4]; 16 g ai/ha, 0 to 100 scale",60
same,"Foxtail, Green plant response rating (0-100)",[4]; [28],90
same,Kochia plant response rating,"kochia (Bassia scoparia) [5]; 16 g ai/ha, 0 to 100 scale",0
same,Kochia plant response rating (0-100),kochia (Bassia scoparia) [5]; [28],60
same,"Oat, Wild plant response rating","[6]; 16 g ai/ha, 0 to 100 scale",90
same,"Oat, Wild plant response rating (0-100)",[6]; [28],90
same,"Pigweed, Palmer plant response rating","[7]; 16 g ai/ha, 0 to 100 scale",20
same,"Pigweed, Palmer plant response rating (0-100)",[7]; [28],50
same,Ragweed plant response rating,"[8]; 16 g ai/ha, 0 to 100 scale",0
same,Ragweed plant response rating (0-100),[8]; [28],0
same,"Ryegrass, Italian plant response rating","[9]; 16 g ai/ha, 0 to 100 scale",20
same,"Ryegrass, Italian plant response rating (0-100)",[9]; [28],80
same,Soybean plant response rating,"soybean (Glycine max) [10]; 16 g ai/ha, 0 to 100 scale",0
same,Soybean plant response rating (0-100),soybean (Glycine max) [10]; [28],30
same,Wheat plant response rating,"[11]; 16 g ai/ha, 0 to 100 scale",20
same,Wheat plant response rating (0-100),[11]; [28],80
same,Barnyardgrass plant response rating (0-100),[12]; [29],100
same,Barnyardgrass plant response rating (0 to 100 scale),[12]; [30],50
same,Blackgrass plant response rating (0-100),[13]; [29],100
same,Blackgrass plant response rating (0 to 100 scale),[13]; [30],90
same,Corn plant response rating (0-100),corn (Zea mays) [14]; [29],100
same,Corn plant response rating (0 to 100 scale),corn (Zea mays) [14]; [30],90
same,Galium plant response rating (0-100),[15]; [29],60
same,Galium plant response rating (0 to 100 scale),[15]; [30],50
same,"Foxtail, Green plant response rating (0-100)",[16]; [29],90
same,"Foxtail, Green plant response rating (0 to 100 scale)",[16]; [30],90
same,Horseweed plant response rating (0-100),[17]; [29],0
same,Horseweed plant response rating (0 to 100 scale),[17]; [30],0
same,Kochia plant response rating (0-100),kochia (Bassia scoparia) [18]; [29],70
same,Kochia plant response rating (0 to 100 scale),kochia (Bassia scoparia) [18]; [30],30
same,"Oat, Wild plant response rating (0-100)",[19]; [29],90
same,"Oat, Wild plant response rating (0 to 100 scale)",[19]; [30],30
same,"Pigweed, Palmer plant response rating (0-100)",[20]; [29],70
same,"Pigweed, Palmer plant response rating (0 to 100 scale)",[20]; [30],20
same,Ragweed plant response rating (0-100),[21]; [29],50
same,Ragweed plant response rating (0 to 100 scale),[21]; [30],30
same,"Ryegrass, Italian plant response rating (0-100)",[22]; [29],80
same,"Ryegrass, Italian plant response rating (0 to 100 scale)",[22]; [30],20
same,Soybean plant response rating (0-100),soybean (Glycine max) [23]; [29],60
same,Soybean plant response rating (0 to 100 scale),soybean (Glycine max) [23]; [30],60
same,Wheat plant response rating (0-100),[24]; [29],90
same,Wheat plant response rating (0 to 100 scale),[24]; [30],80
same,"Plant response rating, Barnyardgrass (0 to 100 scale, 0 is no effect and 100 is complete control)",[25],0
same,"Plant response rating, Ducksalad (0 to 100 scale, 0 is no effect and 100 is complete control)",[26],0
same,"Plant response rating, Rice (0 to 100 scale, 0 is no effect and 100 is complete control)",rice (Oryza sativa),0
same,"Plant response rating, Sedge, Umbrella (0 to 100 scale, 0 is no effect and 100 is complete control)",[27],0

# From patent publication US20260285850A1, “SUBSTITUTED OXAZOLIDINONES AND IMIDAZOLINONES AS HERBICIDES” (FMC CORPORATION, priority 2023, published 2026)
